Patent US20250326744A1, “PIPERAZINE DERIVATIVE OR SALT THEREOF, AND PHARMACEUTICAL COMPOSITION” (priority 2022, published 2025)
Counter-ions that a name gives are not always drawn.

Legend:
mexB (PA) strain = test: Combinational effect with antibacterial agent against Pseudomonas aeruginosa (Test Examples 2 and 4): mexB (PA) strain with LVFX, TC or AZT at 1/4 MIC, EC99; format: cell-based; conditions: Table 52, Test Example 2, 16 to 20 hours culture, OD595; for EC99, mexB (PA), AZT: combined with AZT at 1/4 MIC; for EC99, mexB (PA), LVFX: combined with LVFX at 1/4 MIC; for EC99, mexB (PA), TC: combined with TC at 1/4 MIC
Description: (§1) The combinational effect of the test compound with the antibacterial agent against Pseudomonas aeruginosa was evaluated.
For the evaluation of the inhibitory ability against MexAB-OprM, a mutant strain of Pseudomonas aeruginosa in which MexAB-OprM was expressed as a main drug efflux pump (hereinafter, referred to as a “mexB (PA) strain”) was used. LVFX, TC, or AZT was used as the antibacterial agent used in combination.
The mexB (PA) strain is a strain produced by deleting the genes of MexCD-OprJ, MexEF-OprN, and MexXY in the drug efflux pump of Pseudomonas aeruginosa described in FEMS Microbiology Letters, 2001, Vol. 202, pp. 139 to 143. In the mexB (PA) strain, an expression level of MexB as a drug efflux pump is accelerated.
TC is a tetracycline-based antibacterial agent and is a drug that is discharged outside the bacteria by MexB. AZT is a monobactam-based antibacterial agent and is a drug that is discharged outside the bacteria by MexB.
(§2) AMK and GM are aminoglycoside-based antibacterial agents, and are drugs that are not discharged outside the bacteria by MexB but are discharged outside the bacteria by MexY For the culture of each Pseudomonas aeruginosa strain, a 96-well plate (amount of culture medium per well: 100 μL) was used, and cation-adjusted Mueller Hinton broth (CAMHB) was used. The inoculation amount of the bacteria was set to 10^4 to 5 CFU/well.
(§3) The mexB (PA) strain and the S-3769 strain were cultured for 16 to 20 hours in a culture medium to which each antibacterial agent and test compounds at various concentrations (0 to 800 μM) were added, and the proliferation of the bacterial strains was evaluated by optical turbidity at 595 nm (OD595). The concentration of the antibacterial agent in the culture medium was set to ¼ MIC.
(§4) The proliferation of bacteria in a case where the test compound and the antibacterial agent were not added was measured, and compared with the proliferation of bacteria in a case where the test compound in a case where the antibacterial agent was added at the concentration of ¼ MIC was contained, and the lowest concentration of the test compound at which the proliferation was inhibited by 99% or more was defined as the drug efflux pump inhibitory ability of the test compound as 99% inhibitory effect concentration (EC99).
(§5) The effect of suppressing the proliferation of each test compound in combination with an antibacterial agent at ¼ MIC for mexB (PA) or the S-3769 strain was evaluated as follows according to the value of EC99. • S: EC99≤12.5 μM • A: 12.5 μM<EC99≤25 μM • B: 25 μM<EC99≤100 μM • C: 100 μM<EC99
(§6) The combinational effect of the test compound with the antibacterial agent against Pseudomonas aeruginosa was evaluated in the same manner as in Test Example 2.

S-3769 strain = test: Combinational effect with antibacterial agent against Pseudomonas aeruginosa (Test Examples 2 and 4): S-3769 strain with AMK or GM at 1/4 MIC, EC99; format: cell-based; conditions: Table 52, Test Example 2, 16 to 20 hours culture, OD595; for EC99, S-3769 strain, AMK: combined with AMK at 1/4 MIC; for EC99, S-3769 strain, GM: combined with GM at 1/4 MIC
Description: as §1
The […] was used for evaluating the inhibitory ability against MexXY-OprM. AMK or GM was used as the antibacterial agent used in combination.
The S-3769 strain is a clinically isolated strain collected from a domestic medical institution, and is a strain in which the expression level of MexY is accelerated.
as §2, §3, §4, §5, §6

Row | Structure (SMILES) | EC99, mexB (PA), AZT (mexB (PA) strain) | EC99, mexB (PA), LVFX (mexB (PA) strain) | EC99, mexB (PA), TC (mexB (PA) strain) | EC99, S-3769 strain, AMK (S-3769 strain) | EC99, S-3769 strain, GM (S-3769 strain)
1 | N[C@@H](C(=O)N1CCN(Cc2ccccc2OCC(F)(F)F)CC1)C1CCN(CCc2cc(Cl)ccc2-c2ccccc2)CC1 [Example 2, Hydrobromide of (R)-2-amino-2-(1-(2-(4-chloro-[1,1′-biphenyl]-2-yl)ethyl)piperidin-4-yl)-1-(4-(2-(2,2,2-trifluoroethoxy)benzyl)piperazin-1-yl) ethan-1-one] | B (25 μM<EC99≤100 μM) | C (100 μM<EC99) | B (25 μM<EC99≤100 μM) | S (EC99≤12.5 μM) | S (EC99≤12.5 μM)
2 | CCOc1c(Cl)ccc(F)c1CN1CCN(C(=O)[C@H](N)C2CCN(CCc3cc(Cl)ccc3-c3ccccc3)CC2)CC1 [Example 9, Hydrobromide of (R)-2-amino-1-(4-(3-chloro-2-ethoxy-6-fluorobenzyl)piperazin-1-yl)-2-(1-(2-(4-chloro-[1,1′-biphenyl]-2-yl)ethyl)piperidin-4-yl) ethan-1-one] | B (25 μM<EC99≤100 μM) | C (100 μM<EC99) | B (25 μM<EC99≤100 μM) | A (12.5 μM<EC99≤25 μM) | A (12.5 μM<EC99≤25 μM)
3 | N[C@@H](C(=O)N1CCN(Cc2cccc3c2OCCC3)CC1)C1CCN(CCc2cc(Cl)ccc2-c2ccccc2)CC1 [Example 10, Hydrobromide of (R)-2-amino-2-(1-(2-(4-chloro-[1,1′-biphenyl]-2-yl)ethyl)piperidin-4-yl)-1-(4-(chroman-8-ylmethyl)piperazin-1-yl)ethan-1-one] | A (12.5 μM<EC99≤25 μM) | A (12.5 μM<EC99≤25 μM) | A (12.5 μM<EC99≤25 μM) | A (12.5 μM<EC99≤25 μM) | A (12.5 μM<EC99≤25 μM)
4 | N[C@@H](C(=O)N1CCN(Cc2scc3c2OCCO3)CC1)C1CCN(CCc2cc(Cl)ccc2-c2ccccc2)CC1 [Example 11, Hydrobromide of (R)-2-amino-2-(1-(2-(4-chloro-[1,1′-biphenyl]-2-yl)ethyl)piperidin-4-yl)-1-(4-((2,3-dihydrothieno[3,4-b][1,4]dioxin-5-yl)methyl)piperazin-1-yl)ethan-1-one] | B (25 μM<EC99≤100 μM) | B (25 μM<EC99≤100 μM) | B (25 μM<EC99≤100 μM) | B (25 μM<EC99≤100 μM) | A (12.5 μM<EC99≤25 μM)
5 | N[C@@H](C(=O)N1CCN(Cc2c(F)cccc2OCC(F)F)CC1)C1CCN(CCc2cc(Cl)ccc2-c2ccccc2)CC1 [Example 18, Hydrobromide of (R)-2-amino-2-(1-(2-(4-chloro-[1,1′-biphenyl]-2-yl)ethyl)piperidin-4-yl)-1-(4-(2-(2,2-difluoroethoxy)-6-fluorobenzyl)piperazin-1-yl)ethan-1-one] | B (25 μM<EC99≤100 μM) | B (25 μM<EC99≤100 μM) | B (25 μM<EC99≤100 μM) | A (12.5 μM<EC99≤25 μM) | A (12.5 μM<EC99≤25 μM)
6 | CCOc1cccc(F)c1CN1CCN(C(=O)[C@H](N)C2CCN(CCc3ccccc3)CC2)CC1 [Example 114, Hydrochloride of (R)-2-amino-1-(4-(2-ethoxy-6-fluorobenzyl)piperazin-1-yl)-2-(1-phenethylpiperidin-4-yl)ethan-1-one] | C (100 μM<EC99) | C (100 μM<EC99) | – | – | –
7 | COc1ccccc1CN1CCN(C(=O)[C@H](N)C2CCN(CCc3ccc(Cl)s3)CC2)CC1 [Example 134, Hydrochloride of (R)-2-amino-2-(1-(2-(5-chlorothiophen-2-yl)ethyl)piperidin-4-yl)-1-(4-(2-methoxybenzyl)piperazin-1-yl) ethan-1-one] | C (100 μM<EC99) | C (100 μM<EC99) | – | – | –
8 | COc1ccccc1CN1CCN(C(=O)[C@H](N)C2CCN(CCc3cccc(Cl)c3)CC2)CC1 [Example 140, hydrochloride of (R)-2-amino-2-(1-(3-chlorophenethyl)piperidin-4-yl)-1-(4-(2-methoxybenzyl)piperazin-1-yl)ethan-1-one] | C (100 μM<EC99) | C (100 μM<EC99) | – | – | –
9 | O=C(CN1CCN(CCc2ccccc2)CC1)N1CCN(Cc2ccccc2OC(F)F)CC1 [Example 200, hydrochloride of 1-(4-(2-(difluoromethoxy)benzyl)piperazin-1-yl)-2-(4-phenethylpiperazin-1-yl)ethan-1-one] | B (25 μM<EC99≤100 μM) | B (25 μM<EC99≤100 μM) | – | – | –
10 | COc1cccc(F)c1CN1CCN(C(=O)CN2CCN(CCc3ccccc3)CC2)CC1 [Example 215, hydrochloride of 1-(4-(2-fluoro-6-methoxybenzyl)piperazin-1-yl)-2-(4-phenethylpiperazin-1-yl)ethan-1-one] | A (12.5 μM<EC99≤25 μM) | S (EC99≤12.5 μM) | – | – | –
11 | CCOc1ccccc1CN1CCN(C(=O)CN2CCN(CCc3ccccc3)CC2)CC1 [Example 220, Hydrochloride of 1-(4-(2-ethoxybenzyl)piperazin-1-yl)-2-(4-phenethylpiperazin-1-yl) ethan-1-one] | – | S (EC99≤12.5 μM) | – | – | –
12 | COc1ccc(F)c(F)c1CN1CCN(C(=O)CN2CCN(CCc3ccccc3)CC2)CC1 [Example 247, Hydrochloride of 1-(4-(2,3-difluoro-6-methoxybenzyl)piperazin-1-yl)-2-(4-phenethylpiperazin-1-yl)ethan-1-one] | A (12.5 μM<EC99≤25 μM) | B (25 μM<EC99≤100 μM) | – | – | –
13 | COc1ccsc1CN1CCN(C(=O)CN2CCN(CCc3ccccc3)CC2)CC1 [Example 249, Hydrochloride of 1-(4-((3-methoxythiophen-2-yl)methyl)piperazin-1-yl)-2-(4-phenethylpiperazin-1-yl)ethan-1-one] | C (100 μM<EC99) | C (100 μM<EC99) | – | – | –
14 | COc1ccccc1CN1CCN(C(=O)C(C)N2CCN(CCc3ccccc3)CC2)CC1 (stereo not shown) [Example 261, hydrochloride of 1-(4-(2-methoxybenzyl)piperazin-1-yl)-2-(4-phenethylpiperazin-1-yl)propan-1-one] | A (12.5 μM<EC99≤25 μM) | B (25 μM<EC99≤100 μM) | – | – | –
15 | COc1ccccc1CN1CCN(C(=O)CN2CCN(CCC3CCCCC3)CC2)CC1 [Example 275, 2-(4-(2-Cyclohexylethyl)piperazin-1-yl)-1-(4-(2-methoxybenzyl)piperazin-1-yl) ethan-1-one and hydrochloride thereof] | S (EC99≤12.5 μM) | A (12.5 μM<EC99≤25 μM) | – | – | –
16 | COc1ccccc1CN1CCN(C(=O)CN2CCC(C#N)(CCc3ccccc3)CC2)CC1 [Example 401, Hydrochloride of 1-(2-(4-(2-methoxybenzyl)piperazin-1-yl)-2-oxoethyl)-4-phenethylpiperidine-4-carbonitrile] | B (25 μM<EC99≤100 μM) | C (100 μM<EC99) | – | – | –
17 | COc1ccccc1CN1CCN(C(=O)CN2CCC(N(C)Cc3ccccc3)CC2)CC1 [Example 420, hydrochloride of 2-(4-(benzyl(methyl)amino)piperidin-1-yl)-1-(4-(2-methoxybenzyl)piperazin-1-yl)ethan-1-one] | C (100 μM<EC99) | C (100 μM<EC99) | C (100 μM<EC99) | – | –
